Source: EP2766361B1, “8-CARBAMOYL-2-(2,3-DISUBSTITUTED PYRID-6-YL)-1,2,3,4-TETRAHYDROISOQUINOLINE DERIVATIVES AS APOPTOSIS-INDUCING AGENTS FOR THE TREATMENT OF CANCER AND IMMUNE AND AUTOIMMUNE DISEASES” (priority 2011, dated 2013)

tested on: mouse FL5.12 cells transfected with Bcl-xL; assay: FL5.12 cellular assay (cell viability, CellTiter-Glo); type: cell-based; conditions: IL-3-depleted, 3% FBS assay media, 24 hours, read-out: FL5.12 Bcl-xL, -IL3, EC50
Protocol: Cell viability was assayed using the CellTiter-Glo assay (Promega Corp., Madison, WI) according to the manufacturer instructions. Individual determinations were the result of duplicate values. […] Table 2. In Vitro Data

SMILES	EC50
Cc1c(-c2ccc(N3CCc4cccc(C(=O)Nc5nc6ncccc6s5)c4C3)nc2C(=O)O)cnn1CC12CC3CC(CC(C3)C1)C2 [Example 30, 3-[5-methyl-1-(tricyclo[3.3.1.1^3,7]dec-1-ylmethyl)-1H-pyrazol-4-yl]-6-[8-([1,3]thiazolo[4,5-b]pyridin-2-ylcarbamoyl)-3,4-dihydroisoquinolin-2(1H)-yl]pyridine-2-carboxylic acid]	49 nM
Cc1c(-c2ccc(N3CCc4cccc(C(=O)Nc5nc6ccccc6s5)c4C3)nc2C(=O)O)cnn1CC12CC3CC(C1)CC(OCC1CCOCC1)(C3)C2 [Example 53, 6-[8-(1,3-benzothiazol-2-ylcarbamoyl)-3,4-dihydroisoquinolin-2(1H)-yl]-3-(5-methyl-1-{[3-(tetrahydro-2H-pyran-4-ylmethoxy)tricyclo[3.3.1.1^3,7]dec-1-yl]methyl}-1H-pyrazol-4-yl)pyridine-2-carboxylic acid]	4 nM
O=C(Nc1nc2ccccc2s1)c1cccc2c1CN(c1ccc(-c3cnn(CC45CC6CC(C4)CC(OCCN4CCOCC4)(C6)C5)c3)c(C(=O)O)n1)CC2 [Example 26, 6-[8-(1,3-benzothiazol-2-ylcarbamoyl)-3,4-dihydroisoquinolin-2(1H)-yl]-3-[1-({3-[2-(morpholin-4-yl)ethoxy]tricyclo[3.3.1.1^3,7]dec-1-yl}methyl)-1H-pyrazol-4-yl]pyridine-2-carboxylic acid]	243 nM
N#Cc1c(SC23CC4CC(CC(C4)C2)C3)cccc1-c1ccc(N2CCc3cccc(C(=O)Nc4nc5ccccc5s4)c3C2)nc1C(=O)O [Example 48, 6-[8-(1,3-benzothiazol-2-ylcarbamoyl)-3,4-dihydroisoquinolin-2(1H)-yl]-3-{2-cyano-3-[tricyclo[3.3.1.1^3,7]dec-1-ylsulfanyl]phenyl}pyridine-2-carboxylic acid]	8 nM
COC12CC3CC(CC(Cn4ncc(-c5ccc(N6CCc7cccc(C(=O)Nc8nc9ccccc9s8)c7C6)nc5C(=O)NS(C)(=O)=O)c4C)(C3)C1)C2 [Example 37, N-(1,3-benzothiazol-2-yl)-2-{5-(1-{[3-methoxytricyclo[3.3.1.1^3,7]dec-1-yl]methyl}-5-methyl-1H-pyrazol-4-yl)-6-[(methylsulfonyl)carbamoyl]pyridin-2-yl}-1,2,3,4-tetrahydroisoquinoline-8-carboxamide]	3 nM
Cc1c(-c2ccc(N3CCc4cccc(C(=O)Nc5nc6ccccc6s5)c4C3)nc2C(=O)O)nnn1CC12CC3CC(CC(C3)C1)C2 [Example 57, 6-[8-(1,3-benzothiazol-2-ylcarbamoyl)-3,4-dihydroisoquinolin-2(1H)-yl]-3-[5-methyl-1-(tricyclo[3.3.1.1^3,7]dec-1-ylmethyl)-1H-1,2,3-triazol-4-yl]pyridine-2-carboxylic acid]	12 nM
N#Cc1c(-c2ccc(N3CCc4cccc(C(=O)Nc5nc6ccccc6s5)c4C3)nc2C(=O)O)cccc1S(=O)(=O)C12CC3CC(CC(C3)C1)C2 [Example 60, 6-[8-(1,3-benzothiazol-2-ylcarbamoyl)-3,4-dihydroisoquinolin-2(1H)-yl]-3-[2-cyano-3-(tricyclo[3.3.1.1^3,7]dec-1-ylsulfonyl)phenyl]pyridine-2-carboxylic acid]	55 nM
Cc1c(-c2ccc(N3CCc4cccc(C(=O)Nc5nc6ccccc6s5)c4C3)nc2C(=O)O)ccnc1SC12CC3CC(CC(C3)C1)C2 [Example 74, 6-[8-(1,3-benzothiazol-2-ylcarbamoyl)-3,4-dihydroisoquinolin-2(1H)-yl]-3'-methyl-2'-(tricyclo[3.3.1.1^3,7]dec-1-ylsulfanyl)-3,4'-bipyridine-2-carboxylic acid]	7 nM
Cc1c(-c2ccc(N3CCc4cccc(C(=O)Nc5nc6ccccc6s5)c4C3)nc2C(=O)NS(=O)(=O)C2CC2)cc(C#N)n1CC12CC3CC(CC(C3)C1)C2 [Example 36, N-(1,3-benzothiazol-2-yl)-2-{5-[5-cyano-2-methyl-1-(tricyclo[3.3.1.1^3,7]dec-1-ylmethyl)-1H-pyrrol-3-yl]-6-[(cyclopropylsulfonyl)carbamoyl]pyridin-2-yl}-1,2,3,4-tetrahydroisoquinoline-8-carboxamide]	0.8 nM
Cc1c(-c2ccc(N3CCc4cccc(C(=O)Nc5nc6ccccc6s5)c4C3)nc2C(=O)O)cc(C#N)n1CCC12CC3CC(CC(C3)C1)C2 [Example 34, 6-[8-(1,3-benzothiazol-2-ylcarbamoyl)-3,4-dihydroisoquinolin-2(1H)-yl]-3-{5-cyano-2-methyl-1-[2-(tricyclo[3.3.1.1^3,7]dec-1-yl)ethyl]-1H-pyrrol-3-yl}pyridine-2-carboxylic acid]	150 nM
Cc1c(-c2ccc(N3CCc4cccc(C(=O)Nc5nc6ccccc6s5)c4C3)nc2C(=O)O)ccnc1S(=O)(=O)C12CC3CC(CC(C3)C1)C2 [Example 70, 6-[8-(1,3-benzothiazol-2-ylcarbamoyl)-3,4-dihydroisoquinolin-2(1H)-yl]-3'-methyl-2'-(tricyclo[3.3.1.1^3,7]dec-1-ylsulfonyl)-3,4'-bipyridine-2-carboxylic acid]	72 nM
Cc1c(-c2ccc(N3CCc4cccc(C(=O)Nc5nc6ccccc6s5)c4C3)nc2-c2nn[nH]n2)cnn1CC12CC3CC(CC(C3)C1)C2 [Example 19, N-(1,3-benzothiazol-2-yl)-2-{5-[5-methyl-1-(tricyclo[3.3.1.1^3,7]dec-1-ylmethyl)-1H-pyrazol-4-yl]-6-(2H-tetrazol-5-yl)pyridin-2-yl}-1,2,3,4-tetrahydroisoquinoline-8-carboxamide]	3 nM
Cc1c(C(=O)NC23CC4CC(CC(C4)C2)C3)cccc1-c1ccc(N2CCc3cccc(C(=O)Nc4nc5ccccc5s4)c3C2)nc1C(=O)O [Example 54, 6-[8-(1,3-benzothiazol-2-ylcarbamoyl)-3,4-dihydroisoquinolin-2(1H)-yl]-3-{2-methyl-3-[tricyclo[3.3.1.1^3,7]dec-1-ylcarbamoyl]phenyl}pyridine-2-carboxylic acid]	> 1000 nM
CC12CC3CC(C)(C1)CC(Cn1cc(-c4ccc(N5CCc6cccc(C(=O)Nc7nc8ccccc8s7)c6C5)nc4C(=O)O)cn1)(C3)C2 [Example 5, 6-[8-(1,3-benzothiazol-2-ylcarbamoyl)-3,4-dihydroisoquinolin-2(1H)-yl]-3-(1-{[3,5-dimethyltricyclo[3.3.1.1^3,7]dec-1-yl]methyl}-1H-pyrazol-4-yl)pyridine-2-carboxylic acid]	2 nM
COCCOCCOCCOC12CC3CC(CC(Cn4ncc(-c5ccc(N6CCc7cccc(C(=O)Nc8nc9ccccc9s8)c7C6)nc5C(=O)O)c4C)(C3)C1)C2 [Example 80, 6-[8-(1,3-benzothiazol-2-ylcarbamoyl)-3,4-dihydroisoquinolin-2(1H)-yl]-3-(1-{[3-{2-[2-(2-methoxyethoxy)ethoxy]ethoxy}tricyclo[3.3.1.1^3,7]dec-1-yl]methyl}-5-methyl-1H-pyrazol-4-yl)pyridine-2-carboxylic acid]	1 nM
O=C(Nc1nc2ccccc2s1)c1cccc2c1CN(c1ccc(-c3cnn(CC4CCC5(CCC5)CC4)c3)c(C(=O)O)n1)CC2 [Example 4, 6-[8-(1,3-benzothiazol-2-ylcarbamoyl)-3,4-dihydroisoquinolin-2(1H)-yl]-3-[1-(spiro[3.5]non-7-ylmethyl)-1H-pyrazol-4-yl]pyridine-2-carboxylic acid]	918 nM
COCCOC12CC3CC(CC(Cn4cc(-c5ccc(N6CCc7cccc(C(=O)Nc8nc9ccccc9s8)c7C6)nc5C(=O)O)cn4)(C3)C1)C2 [Example 8, 6-[8-(1,3-benzothiazol-2-ylcarbamoyl)-3,4-dihydroisoquinolin-2(1H)-yl]-3-(1-{[3-(2-methoxyethoxy)tricyclo[3.3.1.1^3,7]dec-1-yl]methyl}-1H-pyrazol-4-yl)pyridine-2-carboxylic acid]	147 nM
N#Cc1c(-c2ccc(N3CCc4cccc(C(=O)Nc5nc6ccccc6s5)c4C3)nc2C(=O)O)cnn1CC12CC3CC(CC(C3)C1)C2 [Example 29, 6-[8-(1,3-benzothiazol-2-ylcarbamoyl)-3,4-dihydroisoquinolin-2(1H)-yl]-3-{5-cyano-1-[tricyclo[3.3.1.1^3,7]dec-1-ylmethyl]-1H-pyrazol-4-yl}pyridine-2-carboxylic acid]	3 nM
Cc1c(-c2ccc(N3CCc4cccc(C(=O)Nc5nc6cccnc6s5)c4C3)nc2C(=O)O)cnn1CC12CC3CC(CC(C3)O1)C2 [Example 67, 3-[5-methyl-1-(2-oxatricyclo[3.3.1.1^3,7]dec-1-ylmethyl)-1H-pyrazol-4-yl]-6-[8-([1,3]thiazolo[5,4-b]pyridin-2-ylcarbamoyl)-3,4-dihydroisoquinolin-2(1H)-yl]pyridine-2-carboxylic acid]	9 nM
Cc1c(-c2ccc(N3CCc4cccc(C(=O)Nc5nc6ccccc6s5)c4C3)nc2C(=O)O)cccc1S(=O)(=O)N(C)C1C2CC3CC(C2)CC1C3 (stereo not shown) [Example 69, 6-[8-(1,3-benzothiazol-2-ylcarbamoyl)-3,4-dihydroisoquinolin-2(1H)-yl]-3-(2-methyl-3-{methyl[tricyclo[3.3.1.1^3,7]dec-2-yl]sulfamoyl}phenyl)pyridine-2-carboxylic acid]	449 nM
Cc1c(-c2ccc(N3CCc4cccc(C(=O)Nc5nc6ccccc6s5)c4C3)nc2C(=O)O)cccc1S(=O)(=O)NC12CC3CC(CC(C3)C1)C2 [Example 51, 6-[8-(1,3-benzothiazol-2-ylcarbamoyl)-3,4-dihydroisoquinolin-2(1H)-yl]-3-{2-methyl-3-[tricyclo[3.3.1.1^3,7]dec-1-ylsulfamoyl]phenyl}pyridine-2-carboxylic acid]	164 nM
Cc1c(-c2ccc(N3CCc4cccc(C(=O)Nc5nc6ccncc6s5)c4C3)nc2C(=O)O)cnn1CC12CC3CC(CC(C3)C1)C2 [Example 78, 3-[5-methyl-1-(tricyclo[3.3.1.1^3,7]dec-1-ylmethyl)-1H-pyrazol-4-yl]-6-[8-([1,3]thiazolo[5,4-c]pyridin-2-ylcarbamoyl)-3,4-dihydroisoquinolin-2(1H)-yl]pyridine-2-carboxylic acid]	3 nM
